Columns and labels:
[1] = target: T1, STAT3-exportin 7 interaction (Homo sapiens, UniProt Q9UIA9); assay: Immunoprecipitation from HCT116 tumor homogenates, STAT3-exportin 7 interaction; assay type: binding; details: homogenates of HCT116 tumors from treated mice, Western blotting
T1 construct: homogenates prepared from HCT116 colon tumors from mice treated with PO- and PS-acet.-STAT3 peptides; from tissue; host or cells: HCT116 xenograft tumours grown in NSG mice
Protocol: (§1) Whole cell lysates or tissue homogenates were prepared by using RIPA lysis buffer (50 mM Tris at pH 7.4, 150 mM NaCl, 1 mM EDTA, 0.5% NP-40, 1 mM NaF, 15% glycerol, and 20 mM β-glycerophosphate). A protease inhibitor cocktail (Mini Protease Inhibitor Cocktail; Roche) and a tyrosine phosphatase inhibitor, sodium orthovanadate (Na3VO4, 1 mM), were added freshly to the lysis buffer. Protein amounts were determined by BCA using a Thermo Fisher Scientific kit. Normalized protein amounts were subjected to an SDS-PAGE and transferred onto a nitrocellulose membrane for Western blotting. Proteins were visualized with a chemiluminescent detection kit (Pierce, Thermo Fisher Scientific). The protein levels for STAT1 (sc-346, E-23), STAT3 (sc-482, C-20), STAT5 (sc-74442, A-9), Crm1 (exportin 1) (sc-5595, H-300), CAS (exportin 2) (sc-271537, H-2), exportin 5 (sc-66885, H-300), and exportin 7 (sc-98639, H-82) were determined using antibodies from Santa Cruz Biotechnology Inc. Anti–exportin 3 (exportin T, 630622, LOS1 05-1525), anti–exportin 4 (3499-1), and anti–exportin 6 (11408-1-AP) were from MilliporeSigma, Epitomics, and Proteintech, respectively. […]
(B) PS-acet.-STAT3 peptide downregulates STAT3 phosphorylation, assessed by Western blotting using tumor homogenates prepared from tumors shown in A. […]

[2] = target: T2, acetyl-STAT3 (Homo sapiens, UniProt P40763); assay: Immunoprecipitation of PS-oligo and Western blotting, acetyl-STAT3; assay type: binding; details: HCT116 cells, immunoprecipitation of PS-oligo, Western blotting
T2 construct: endogenous in cells; host or cells: HCT116
Protocol: as §1
labeled PS-acet.-STAT3 peptide. The fluorescence intensity of FAM-labeled PS-acet.-STAT3 peptide in the cells was quantified by flow cytometry. […]
quantification of FAM. […]
above were assessed by qRT-PCR. […]

T1 sequence (Q9UIA9 2-1087 limits assumed): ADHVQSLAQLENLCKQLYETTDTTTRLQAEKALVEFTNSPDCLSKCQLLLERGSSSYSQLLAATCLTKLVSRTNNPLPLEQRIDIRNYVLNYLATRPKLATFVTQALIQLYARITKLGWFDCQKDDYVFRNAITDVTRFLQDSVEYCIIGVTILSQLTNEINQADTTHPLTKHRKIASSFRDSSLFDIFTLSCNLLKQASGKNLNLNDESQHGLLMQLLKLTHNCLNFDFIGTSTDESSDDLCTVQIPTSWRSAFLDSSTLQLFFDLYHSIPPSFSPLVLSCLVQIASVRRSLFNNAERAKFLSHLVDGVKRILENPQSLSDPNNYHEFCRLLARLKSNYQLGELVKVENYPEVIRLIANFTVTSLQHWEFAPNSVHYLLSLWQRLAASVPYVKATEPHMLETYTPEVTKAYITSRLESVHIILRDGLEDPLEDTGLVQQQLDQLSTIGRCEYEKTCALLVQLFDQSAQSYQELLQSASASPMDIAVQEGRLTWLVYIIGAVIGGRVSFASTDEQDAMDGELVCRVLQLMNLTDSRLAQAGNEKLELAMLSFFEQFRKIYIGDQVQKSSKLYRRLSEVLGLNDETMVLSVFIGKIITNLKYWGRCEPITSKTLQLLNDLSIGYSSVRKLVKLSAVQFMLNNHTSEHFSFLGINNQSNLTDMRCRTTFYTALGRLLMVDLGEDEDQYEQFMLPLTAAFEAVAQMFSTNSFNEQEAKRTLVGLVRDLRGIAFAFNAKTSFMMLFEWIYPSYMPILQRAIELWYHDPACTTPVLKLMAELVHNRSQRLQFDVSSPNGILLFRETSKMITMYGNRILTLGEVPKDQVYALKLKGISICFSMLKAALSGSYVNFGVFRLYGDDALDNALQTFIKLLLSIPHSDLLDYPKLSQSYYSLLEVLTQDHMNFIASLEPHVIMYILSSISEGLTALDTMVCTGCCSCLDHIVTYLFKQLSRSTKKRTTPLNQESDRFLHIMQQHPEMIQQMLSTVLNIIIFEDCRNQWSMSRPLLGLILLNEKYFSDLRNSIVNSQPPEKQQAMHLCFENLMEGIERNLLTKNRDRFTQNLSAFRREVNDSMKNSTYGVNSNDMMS
T2 sequence (P40763 whole entry): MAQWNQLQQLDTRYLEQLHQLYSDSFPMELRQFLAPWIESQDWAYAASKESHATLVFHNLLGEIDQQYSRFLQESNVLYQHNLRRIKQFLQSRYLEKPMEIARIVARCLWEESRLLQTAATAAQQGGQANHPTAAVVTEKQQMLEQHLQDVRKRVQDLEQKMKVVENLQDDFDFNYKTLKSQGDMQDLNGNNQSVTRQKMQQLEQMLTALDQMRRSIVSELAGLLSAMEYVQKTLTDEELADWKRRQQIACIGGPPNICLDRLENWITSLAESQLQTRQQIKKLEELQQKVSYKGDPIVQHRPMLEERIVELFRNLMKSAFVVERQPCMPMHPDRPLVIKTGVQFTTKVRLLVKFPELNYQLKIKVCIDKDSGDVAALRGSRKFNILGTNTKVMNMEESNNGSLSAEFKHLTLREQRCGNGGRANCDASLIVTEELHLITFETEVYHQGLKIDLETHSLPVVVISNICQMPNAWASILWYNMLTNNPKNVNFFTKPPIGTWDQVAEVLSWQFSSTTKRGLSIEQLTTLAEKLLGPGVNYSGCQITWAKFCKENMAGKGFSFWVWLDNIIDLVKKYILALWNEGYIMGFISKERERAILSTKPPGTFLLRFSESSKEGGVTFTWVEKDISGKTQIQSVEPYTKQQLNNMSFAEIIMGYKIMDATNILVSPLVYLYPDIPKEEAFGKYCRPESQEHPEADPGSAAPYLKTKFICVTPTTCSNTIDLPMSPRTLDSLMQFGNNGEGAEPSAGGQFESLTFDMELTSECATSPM

## PDIPKEEAFGK685(Ac)YCRPESQEHPC-linker-T*C*C*A*T*G*A*G*C*T*T*C*C*T*G*A*T*G*C*T [PS-acet.-STAT3 peptide]
[1]
  STAT3 binding to exportin 7 in tumor tissues: blocked
  binding to exportin 7 in tumor tissues: bound
[2]
  binding to acetyl-STAT3: directly bound

Reference: paper PMC7934871 (JCI Insight, 2021)
